Source: patent US9309275B2, “3′-deoxy nucleosides for the treatment of HCV” (Idenix Pharmaceuticals, Inc., priority 2013, dated 2016)
Read-outs that look alike come from different tables or passages of the source.

Columns and labels:
HCV genotype 1b replicon = assay: HCV replicon assay (Zluc luciferase reporter); type: cell-based
Protocol: Huh-7-derived cell line (Zluc) that harbors an HCV genotype 1b replicon and a luciferase reporter gene was grown in Dulbecco's Modified Eagle Medium (DMEM) supplemented with 10% fetal bovine serum, 2 mM GlutaMAX, 1% MEM nonessential amino acids, 100 IU/mL penicillin, 100 μg/mL streptomycin, and 0.5 mg/mL Geneticin® (G418). For dose response testing the cells were seeded in 96-well plates at 7.5×10^3 cells per well in a volume of 50 μL, and incubated at 37° C./5% CO2. Drug solutions were made up freshly in Huh-7 media as 2× stocks. Ten additional 5-fold dilutions were prepared from these stocks in DMEM without G418. At least three hours after Zluc cells were seeded, drug treatment was initiated by adding 50 μL of drug dilutions to the plates in duplicate. Final concentrations of drug ranged from 100 μM to […]. Cells were then incubated at 37° C./5% CO2. Alternatively, compounds were tested at two concentrations (1 μM and 10 μM). […] For this, media was removed from the plates via gentle tapping. Fifty microliters of ONE-glo luciferase assay reagent was added to each well. The plates were shaken gently for 3 min at room temperature and luminescence was measured on a Victor^3 V 1420 multilabel counter (Perkin Elmer) with a 1 second read time using a 700 nm cut-off filter. The EC50 values were calculated from dose response curves from the resulting best-fit equations determined by Microsoft Excel and XLfit 4.1 software. When screening at two fixed concentrations, the results were expressed as % inhibition at 1 μM and 10 μM.

[1] = Cytotoxicity evaluation, CellTiter-Blue Cell Viability Assay; type: cell-based; conditions: human
Protocol: (§1) For cytotoxicity evaluation, Zluc cells were treated with test compound as described herein, and cell viability was monitored using the CellTiter-Blue Cell Viability Assay (Promega) by adding 20 μL of the assay solution to each well. The plates were then incubated at 37° C./5% CO2 for at least 3 hours.

Zluc cells = assay: as above; type: cell-based; conditions: read-out: HCV Replicon CC50
Protocol: as §1

[2] = molecular target: T1, HCV genotype 1b NS5B protein containing the S282T mutation (Hepatitis C virus genotype 1b, UniProt Q9WMX2, S2701T); assay: HCV polymerase enzyme assay, S282T mutant; type: biochemical; conditions: purified recombinant genotype 1b NS5B with S282T mutation; compounds tested as nucleoside triphosphates
T1 construct: HCV genotype 1b NS5B protein were used to generate recombinant HCV polymerases (with a deletion of the 21 carboxy terminal amino acids); made in house
Excerpt: (§2) Test compounds in the form of nucleoside triphosphates were examined for inhibitory activity against purified HCV polymerase in a standard assay. Bacterial expression constructs encoding the approximately 65 kDa HCV genotype 1b NS5B protein were used to generate recombinant HCV polymerases (with a deletion of the 21 carboxy terminal amino acids). Both the wild-type genotype 1b protein and protein containing the S282T mutation were expressed and purified for use in the enzymatic activity assay.
(§3) The enzymatic activity assay measured the inhibitory effect of increasing concentrations of test compound on the incorporation of α-[^33P]-labeled nucleotide into trichloroacetic acid-precipitable material. Recombinant polymerase and synthetic RNA template were combined in reaction buffer containing ribonucleoside triphosphates, α-[^33P]-labeled nucleotide and eight concentrations of test compound in three-fold dilutions. […]
(§4) Reactions were terminated by the addition of ice-cold trichloroacetic acid and sodium pyrophosphate to promote precipitation of newly-synthesized ribonucleic acid. Precipitable material from the reactions was collected by filtration onto 96-well filter plates, washed extensively with water, and quantified by liquid scintillation.
(§5) The inhibitory activity of test compounds was determined by fitting results to dose-response curves using XLfit software.

[3] = molecular target: T2, wild-type HCV genotype 1b NS5B protein (Hepatitis C virus genotype 1b, UniProt Q9WMX2); assay: HCV polymerase enzyme assay, wild-type; type: biochemical
T2 construct: HCV genotype 1b NS5B protein were used to generate recombinant HCV polymerases (with a deletion of the 21 carboxy terminal amino acids); made in house
Excerpt: as §2, §3, §4, §5

[4] = read-out: HCV Replicon EC50, Huh-7-derived Zluc cells, 72 hours of incubation
[5] = Zluc cells, read-out: HCV Replicon CC50
[6] = Hepatitis C virus, 72 h, Huh-7-derived Zluc cells, 72 hours of incubation, read-out: HCV Replicon EC50
[7] = Huh-7-derived Zluc cells, 72 hours of incubation, read-out: HCV Replicon EC50
[8] = Zluc cells (HCV replicon cells)

Row | SMILES | CC50 at 72 h [1, 5] [µM] | EC50 (HCV genotype 1b replicon; [6]) [µM] | EC50 (HCV genotype 1b replicon; [7]) [µM] | also measured
1 | CC(C)OC(=O)[C@H](C)NP(=O)(OC[C@@H]1C[C@@](C)(F)[C@H](n2cnc3c(=O)[nH]c(N)nc32)O1)Oc1ccccc1 (single isomer, unassigned) [1b Diastereomer 1] | > 50 |  |  | EC50 (HCV genotype 1b replicon; [4]): 1 to 10 µM
2 | CCOc1nc(N)nc2c1ncn2[C@@H]1O[C@H](COP(=O)(N[C@H](C)C(=O)OC(C)C)Oc2ccccc2)C[C@@]1(C)F (single isomer, unassigned) [2a Diastereomer 1] | > 50 | > 10 |  | 
3 | CCOc1nc(N)nc2c1ncn2[C@@H]1O[C@H](COP(=O)(N[C@@H](C)C(=O)OC(C)C)Oc2ccccc2)C[C@@]1(C)F (single isomer, unassigned) [2b Diastereomer 1] | > 50 |  | > 10 | 
4 | CCOc1nc(N)nc2c1ncn2[C@@H]1O[C@H](COP(=O)(N[C@@H](C)C(=O)OC(C)C)Oc2ccccc2)C[C@@]1(C)F (single isomer, unassigned) [2b Diastereomer 2] |  |  | 1 to 10 | CC50 (Zluc cells): > 50 µM
5 | CC(C)OC(=O)[C@H](C)NP(=O)(OC[C@@H]1C[C@@](C)(F)[C@H](n2ccc(N)nc2=O)O1)Oc1ccccc1 (single isomer, unassigned) [3b Diastereomer 1] | > 50 | > 10 |  | 
6 | CC(C)OC(=O)[C@H](C)NP(=O)(OC[C@@H]1C[C@@](C)(F)[C@H](n2ccc(=O)[nH]c2=O)O1)Oc1ccccc1 (single isomer, unassigned) [4b Diastereomer 1] | > 50 |  | 0.25 to 1 | 
7 | CC(C)OC(=O)[C@H](C)NP(=O)(OC[C@@H]1C[C@@](C)(F)[C@H](n2ccc(=O)[nH]c2=O)O1)Oc1ccccc1 (single isomer, unassigned) [4b Diastereomer 2] |  |  | 1 to 10 | CC50 (Zluc cells): > 50 µM
8 | CC(C)OC(=O)[C@H](C)NP(=O)(OC[C@@H]1C[C@@](C)(F)[C@H](n2cnc3c(=O)[nH]c(N)nc32)O1)Oc1ccccc1 (single isomer, unassigned) [lb Diastereomer 2] |  |  |  | EC50 (HCV genotype 1b replicon; [4]): > 10 µM; CC50 (Zluc cells): > 50 µM
9 | C[C@@]1(F)C[C@@H](COP(=O)(O)OP(=O)(O)OP(=O)(O)O)O[C@H]1n1cnc2c(=O)[nH]c(N)nc21 [Compound 101] |  |  |  | IC50 [2]: 1 to 10 µM; IC50 [3]: < 0.25 µM
10 | C[C@@]1(F)C[C@@H](COP(=O)(O)OP(=O)(O)OP(=O)(O)O)O[C@H]1n1ccc(=O)[nH]c1=O [Compound 102] |  |  |  | IC50 [2]: > 10 µM; IC50 [3]: 1 to 10 µM
11 | C[C@@]1(F)C[C@@H](CO)O[C@H]1n1cnc2c(=O)[nH]c(N)nc21 [Compound 201] |  | > 10 |  | CC50 at 72 h [1, 8]: > 50 µM
12 | C[C@@]1(F)C[C@@H](CO)O[C@H]1n1ccc(=O)[nH]c1=O [Compound 202] |  | > 10 |  | CC50 at 72 h [1, 8]: > 50 µM
